The source of these data is patent US6972288B1, “4-amino-quinazoline and quinoline derivatives having an inhibitory effect on signal transduction mediated by tyrosine kinases” (Boehringer Ingelheim Pharma KG, priority 1999, dated 2005).

The structures appear in SMILES notation.

Data set [1] addresses T1, human EGF-R (Homo sapiens, UniProt P00533).
T1 construct: expressed in transfected cells; host or cells: F/L-HERc cells, derived from the murine IL-3-dependent line FDC-P1 ('FDC-PI' [sic]); retroviral vector LXSN, packaging line GP+E86
The experiment in a line: Inhibition of EGF-dependent proliferation of F/L-HERc cells (Cell Titer 96 AQueous assay). It counts as cell-based. Particulars: F/L-HERc cells (murine IL-3-dependent line expressing human EGF-R), stimulated with EGF 20 ng/ml, 48 hours at 37° C. An excerpt:
A cell line of murine origin dependent on interleukin-3 (IL-3) which was genetically modified to express functional human EGF-R was used here. The proliferation of these cells known as F/L-HERc can therefore be stimulated either by murine IL-3 or by EGF (cf. von Rüden, T. et al. in EMBO J. 7, 2749-2756 (1988) and Pierce, J. H. et al. in Science 239. 628-631 (1988)).
The starting material used for the F/L-HERc cells was the cell line FDC-PI, the production of which has been described by Dexter, T. M. et al, in J. Exp. Med. 152, 1036-1047 (1980). alternatively, however, other growth-factor-dependent cells may also be used (cf. for example Pierce, J. H. et al. in Science 239, 628-631 (1988), Shibuya, H. et al. in Cell 70, 57-67 (1992) and alexander, W. S. et al. in EMBO J. 10, 3683-3691 (1991)). For expressing the human EGF-R cDNA (cf. Ullrich, A. et al. in Nature 309, 418-425 (1984)) recombinant retroviruses were used as described by von Rüden, T. et al., EMBO J. 7, 2749-2756 (1988), except that the retroviral vector LXSN (cf. Miller, A. D. et al. in BioTechniques 1, 980-990 (1989)) was used for the expression of the EGF-R cDNA and the line GP+E86 (cf, Markowitz, D, et al. in J. Virol. 62, 1120-1124 (1988)) was used as the packaging cell.
The test was performed as follows: • F/L-HERC cells were cultivated in RPMI/1640 medium (BioWhittaker), supplemented with 10% foetal calf serum (FCS, Boehringer Mannheim). 2 mM glutamine (BioWhittaker), standard antibiotics and 20 ng/ml of human EGF (Promega), at 37° C. and 5% CO2. In order to investigate the inhibitory activity of the compounds according to the invention, 1.5×10^4 cells per well were cultivated in triplicate in 96-well plates in the above medium ([…]), the cell proliferation being stimulated with either EGF (20 ng/ml) or murine IL-3. The IL-3 used was obtained from culture supernatants of the cell line X63/0 mIL-3 (cf. Karasuyama, 4. et al. in Eur. J. Immunol. 18, 97-104 (19881). The compounds according to the invention were dissolved in 100% dimethylsulphoxide (DMSO) and added to the cultures in various dilutions, the maximum DMSO concentration being 1%. The cultures were incubated for 48 hours at 37° C.
In order to determine the inhibitory activity of the compounds according to the invention the relative cell number was measured in O.D. units using the Cell Titer 96™ AQueous Non-Radioactive Cell Proliferation Assay (Promega). The relative cell number was calculated as a percentage of the control (F/LHERc cells without inhibitor) and the concentration of active substance which inhibits the proliferation of the cells by 50% (IC50) was derived therefrom.

T1 sequence (P00533 25-1210): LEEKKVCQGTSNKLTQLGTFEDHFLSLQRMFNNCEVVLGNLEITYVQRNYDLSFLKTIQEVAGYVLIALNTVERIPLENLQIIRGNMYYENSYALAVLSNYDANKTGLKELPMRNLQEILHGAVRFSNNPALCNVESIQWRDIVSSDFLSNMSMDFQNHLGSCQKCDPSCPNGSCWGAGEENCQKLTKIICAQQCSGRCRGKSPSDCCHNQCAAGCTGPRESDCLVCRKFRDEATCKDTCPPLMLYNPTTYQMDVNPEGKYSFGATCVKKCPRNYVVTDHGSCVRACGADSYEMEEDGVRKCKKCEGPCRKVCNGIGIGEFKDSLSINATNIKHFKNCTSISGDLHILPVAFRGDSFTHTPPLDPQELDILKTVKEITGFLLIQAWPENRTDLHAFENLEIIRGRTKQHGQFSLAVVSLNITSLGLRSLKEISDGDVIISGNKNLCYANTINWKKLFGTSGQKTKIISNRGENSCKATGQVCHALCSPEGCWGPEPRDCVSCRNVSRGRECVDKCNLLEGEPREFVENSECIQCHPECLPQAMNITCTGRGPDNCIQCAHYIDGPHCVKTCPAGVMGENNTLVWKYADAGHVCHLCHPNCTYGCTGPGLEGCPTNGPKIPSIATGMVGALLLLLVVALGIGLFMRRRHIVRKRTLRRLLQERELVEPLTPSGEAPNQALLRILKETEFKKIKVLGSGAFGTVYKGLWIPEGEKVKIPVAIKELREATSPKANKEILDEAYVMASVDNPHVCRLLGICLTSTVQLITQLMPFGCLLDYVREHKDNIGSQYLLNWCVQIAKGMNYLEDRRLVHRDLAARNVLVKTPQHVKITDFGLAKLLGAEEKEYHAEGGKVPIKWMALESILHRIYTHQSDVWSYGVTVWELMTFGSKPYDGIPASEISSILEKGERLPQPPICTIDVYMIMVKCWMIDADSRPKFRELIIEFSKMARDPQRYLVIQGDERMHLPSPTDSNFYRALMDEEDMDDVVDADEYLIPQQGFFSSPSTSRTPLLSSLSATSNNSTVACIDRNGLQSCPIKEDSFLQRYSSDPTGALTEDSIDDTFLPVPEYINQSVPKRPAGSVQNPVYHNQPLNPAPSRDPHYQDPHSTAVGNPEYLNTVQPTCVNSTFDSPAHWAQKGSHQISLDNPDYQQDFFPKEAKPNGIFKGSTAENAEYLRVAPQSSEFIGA

For `C=CC(=O)Nc1cc2c(Nc3cccc(Br)c3)ncnc2cc1OCCCN1CCN(CC(=O)OCC)CC1` [Example 1, 4-[(3-Bromophenyl)amino]-7-(3-{4-[(ethoxycarbonyl)methyl]-piperazin-1-yl)propyloxy)-6-[(vinylcarbonyl)amino]-quinazoline], the melting point (in general, the temperature, or range, at which the solid turns liquid) was in the range of 80 to 85 °C. The IC50 (usually the concentration at which inhibition is half-maximal) in data set [1] turned out to be 2.6 nM. Taken in the same sequence, the figures for `CCOC(=O)CN(C)CC=CC(=O)Nc1ccc2ncnc(Nc3cccc(Br)c3)c2c1` [Example 2, 4-[(3-Bromophenyl)amino]-6-[(4-{N-[(ethoxycarbonyl)methyl]-N-methylamino}-1-oxo-2-buten-1-yl)-amino]-quinazoline] were 182 to 183 °C and 5.2 nM. Consider `CCOC(=O)CN(C)CCCNC(=O)C=CC(=O)Nc1ccc2ncnc(Nc3cccc(Br)c3)c2c1` [Example 3, 4-[(3-Bromophenyl)amino]-6-{[4-(3-{N-[(ethoxycarbonyl)methyl]-N-methylamino)propylamino)-1,4-dioxo-2-buten-1-yl]amino}-quinazoline], for which the melting point worked out at 199 °C.

For the compound `CCOC(=O)CN(CC=CC(=O)Nc1cc2c(Nc3ccc(F)c(Cl)c3)ncnc2cc1OCC1CC1)CCOC(C)=O` [Example 11, 4-[(3-chloro-4-fluorophenyl)amino]-6-[(4-(N-[(ethoxycarbonyl)-methyl]-N-[2-(methylcarbonyloxy)ethyl]amino]-1-oxo-2-buten-1-yl)amino]-7-cyclopropylmethoxy-quinazoline], the melting point is 90 to 92 °C. The compound further gave an IC50 in data set [1] of 74 nM.
